{"source": "patent US20230310356A1", "about": "“COMPOSITION FOR PREVENTING, AMELIORATING, OR TREATING BRAIN DAMAGE AND MILD COGNITIVE IMPAIRMENT COMPRISING GLUTAMINE AS EFFECTIVE COMPONENT” (INDUSTRY-ACADEMIC COOPERATION FOUNDATION GYEONGSANG …, priority 2020, published 2023)", "key": {"[1]": {"tested_on": "ROS/RNS", "experiment": "ROS/RNS levels in plasma, PFC and hippocampus after CIS and glutamine supplementation", "type": "in vivo, mouse", "details": "STR+Gln vs STR", "procedure": "Control (CTL) is a group which received normal diet (common diet with nutritional balance) without any stress, CTL+Gln group is a normal diet group supplemented with glutamine (150 mg/kg of feed) and without any stress, STR is a normal diet group under stress, and STR+Gln group is a normal diet group supplemented with glutamine (150 mg/kg of feed) under stress. The stress group (STR) was individually brought by force to a restrainer for 2 hours every day (i.e., between 2 PM and 4 PM) so that the animals are applied with chronic immobilization stress for 15 days. Fifty-one model animals of the second cohort, i.e., 12 to 13 animals per group, were not subjected to any behavior analysis but immediately sacrificed after completion of the last immobilization stress. Then, ROS/RNS levels in the plasma, PFC, and hippocampus were examined. Specifically, ROS/RNS was examined by using ROS/RNS assay kit (STA-347; Cell Biolabs, San Diego, CA, USA) and following the manufacturer's protocol. PFC and hippocampal tissues were subjected to tissue homogenization by using Bullert blender after adding glass beads to RIPA (radioimmunoprecipitation assay) buffer solution. After the ultrasonication for 2 minutes, they were centrifuged for 10 minutes at conditions including 4° C. and 12,000×g. Then, the measurement of fluorescence intensity using Tecan Infinite F200 PRO MicroReader was repeated 3 times."}, "[2]": {"tested_on": "normal mouse", "experiment": "Cognitive ability of normal mouse after oral administration of glutamine (Y-maze, ORT, OLT)", "type": "in vivo", "procedure": "To determine if there is also an effect of orally administered glutamine on improving the cognitive ability of a normal mouse, 2 hours later glutamine administration, any improvement in cognitive ability was examined. The cognitive ability was tested by using Y-maze for testing short-term memory and ORT and OLT (object location recognition test) for testing long-term memory. Y-maze: To a Y-shaped maze consisting of 3 arms that are spread at 120° angle from each other and designated as A, B, and C, respectively, a mouse was introduced. Then, the spontaneous alternation indicating an entrance into different arms, 3 times consecutively, was applied to the following Formula (4) and the calculation was made (FIG. 10A). Three consecutive spontaneous alternation=[(Number of consecutive entry into different arms)/(Total number of arm entries−2)]×100 Formula (4) ORT/OLT: ORT was carried out for 10 minutes as described above, and, 24 hours later, one of the objects was translocated to a new spot and the animal was allowed to explore again for 5 minutes (FIG. 10B)."}, "[3]": {"tested_on": "iNOS", "experiment": "Double-IHC protein expression after CIS and glutamine supplementation: iNOS", "type": "in vivo, mouse", "details": "microglial cells in infralimbic cortex and hippocampal CA1 region; glutamine supplementation diet vs stress group", "procedure": "Control (CTL) is a group which received normal diet (common diet with nutritional balance) without any stress, CTL+Gln group is a normal diet group supplemented with glutamine (150 mg/kg of feed) and without any stress, STR is a normal diet group under stress, and STR+Gln group is a normal diet group supplemented with glutamine (150 mg/kg of feed) under stress. The stress group (STR) was individually brought by force to a restrainer for 2 hours every day (i.e., between 2 PM and 4 PM) so that the animals are applied with chronic immobilization stress for 15 days. To determine the specific changes in the brain tissues after glutamine supplementation, double staining was carried out with a cell marker so that the proteins related to a change in ROS/RNS content (i.e., iNOS; nNOS; and p47phox and p67phox as a subunit of NOX) with cell markers are analyzed by double-IHC (immunohistochemistry). Twenty-four hours after applying the last stress, the mouse was anesthetized with avertin, and perfused with PBS (pH 7.4) and 4% formaldehyde. After that, the brain was removed, fixed, and cut to a thickness with 40 μm. […]"}, "[4]": {"details": "oral glutamine, long-term memory, compared to the normal mouse"}}, "data": [{"smiles": "NC(=O)CC[C@H](N)C(=O)O", "note": "[glutamine]", "values": [{"measurement": "level of active oxygen/nitrogen species (ROS/RNS) in hippocampus", "setting": "[1]; hippocampal tissue", "result": "lower level"}, {"measurement": "level of active oxygen/nitrogen species (ROS/RNS) in plasma", "setting": "[1]; plasma", "result": "lower level"}, {"measurement": "level of active oxygen/nitrogen species (ROS/RNS) in PFC", "setting": "[1]; prefrontal cortex", "result": "lower level"}, {"measurement": "spontaneous alternation of Y-maze test", "setting": "[2]; 2 hours later glutamine oral administration, short-term memory", "result": "no difference"}, {"measurement": "cognitive ability in OLT", "setting": "[2]; [4]", "result": "more enhanced cognitive ability"}, {"measurement": "cognitive ability in ORT", "setting": "[2]; [4]", "result": "more enhanced cognitive ability"}, {"measurement": "expression amount of iNOS", "setting": "[3]", "result": "statistically significant decrement"}]}]}
